Experiments:
[1] = system: Neonatal Rat Ventricular Myocytes (NRVMs); test: Calcium transient (Tdecay) in single-pulse stimulated NRVMs, CTIC; format: cell-based; settings: for Tdecay Mean / Tdecay Diff. (%) control vs compound / Tdecay Difference (ms) control vs compound: single pulse; for Tdecay Mean: average signal of three wells
Description: (§1) A Calcium Transient Image Cytometer (CTIC) instrument and software have been developed at Vala Sciences to analyze calcium transient and other fluorescent read out in stimulated cardiomyocytes which is utilized in the Examples described herein. The instrument consists of a Nikon Eclipse™ microscope with a 20× objective, a Cohu 6612-3000 monochrome ½″ digital/analog progressive scan camera (which operates at 30 or 60 Hz), a Pentium™ 4-based PC, and a 200 gigabyte external “firewire” hard drive.
Platinum electrodes are mounted on a micromanipulator to stimulate cardiomyocytes cultured in a 96-well plate. The plate is placed, without a lid, on the stage of a robotic inverted microscope outfitted for fluorescence microscopy. The mechanical stage of the microscope moves to bring each well into position and the micromanipulator lowers to the pair of electrodes to bring them into contact with the culture medium of the well that is being analyzed. The voltage used to stimulate the cells is on the order of 20 to 30 volts, utilizing square wave pulses of 5 to 20 msec. A “polarity reverser” is included in the circuit to maintain electrode performance and effective stimulation of cardiac myocytes. FIG. 3 describes the prototype setting. After positioned on the well, the electrodes move to the “down” position, the instrument autofocuses on cells nuclei (blue channel), stimulates the cells (single stimulus or at 1 to 3 Hz for 3 to 10 seconds) and acquires the fluo-4 channel (green channel). Subsequently, the electrodes move to the “up” position and the instrument moves to another well, repeating the entire process. The time required to sample each well will range from 20 to 30 seconds, depending on the number of frames that are collected and the rate of stimulation.
The instrument is incorporated in a 37° C. chamber with CO2 and O2 percentage controllers, allowing the execution of experiment in approximate physiological conditions. The calcium analysis software, developed at Vala Sciences as a plug-in for Vala's CyteSeer High Content Analysis™ software, converts the fluo-4 and Hoechst 33342 fluorescence signals in a binary mask, to distinguish portions of the images corresponding to single cells. Then, comparing the images acquired during the stimulation, the software reports the calcium variation for the well or for every single cell and the average value for the well. Traces can be filtered to remove low responders or kinetics with specific characteristics.
A number of kinetic parameters can be automatically derived either for the nuclear, cytoplasm or the whole cell compartments: The Full Width at Half Maximum (FWHM), which is the time required for progression from the 50% point on the upstroke to 50% point on the downstroke, TRise, which is the time from 50% point to 100% on the upstroke, and the TDecay, which is the time period from 100% point to 50% point on the decay phase. Other values can be measured, including the time from 75% to 25% in the downstroke (T75-25) and the value at a particular time. Values are measured for single cells in the well and as average of the well.
The CTIC and calcium recording have been validated also for toxicity-related analysis. In one set of experiments, NRVMs are treated with either sparfloxacin or cisapride. The first one is a fluoroquinolone antibiotic no longer available in the U.S., known to induce QT interval prolongation at high dosage. The second one is a serotonin 5-HT4 receptor agonist, used to cure people with gastro esophageal reflux disease. […] This is a clear hallmark of compounds that predispose to arrhythmia and torsades de pointes.
Tdecay is indicated for the average signal of three control wells and three compound treated wells. The mean, standard deviation (SD) and percent error is calculated for each group. The difference between the control and the compound groups is also indicated.
FIGS. 5A and 5B show calcium transient in drug treated NRVMs. […]

[2] = system: Neonatal Rat Ventricular Myocytes (NRVMs); format: cell-based
Description: as §1
Platinum electrodes are mounted on a micromanipulator to stimulate cardiomyocytes cultured in a 96-well plate. The plate is placed, without a lid, on the stage of a robotic inverted microscope outfitted for fluorescence microscopy. The mechanical stage of the microscope moves to bring each well into position and the micromanipulator lowers to the pair of electrodes to bring them into contact with the culture medium of the well that is being analyzed. […]
The instrument is incorporated in a 37° C. chamber with CO2 and O2 percentage controllers, allowing the execution of experiment in approximate physiological conditions. The calcium analysis software, developed at Vala Sciences as a plug-in for Vala's CyteSeer High Content Analysis™ software, converts the fluo-4 and Hoechst 33342 fluorescence signals in a binary mask, to distinguish portions of the images corresponding to single cells. […]

Early after depolarization (EAD) ([1]; 1 μM)	Effect on Tdecay ([1]; 1 μM)	Tdecay Mean ([1]; 1 μM in recording buffer) [ms]	Tdecay Diff. (%) control vs compound ([1]; 1 μM)	Tdecay Difference (ms) control vs compound ([1]; 1 μM)	Effect on Tdecay ([1]; 100 μM during the stimulation)	Tdecay Mean ([1]; 100 μM in recording buffer) [ms]	Tdecay Diff. (%) control vs compound ([1]; 100 μM)	Tdecay Difference (ms) control vs compound ([1]; 100 μM)	Calcium flux response to continuous stimulation [2]	Substance
causes early after depolarization (EAD)	induces an increase in Tdecay	2145	+129%	+1210 ms	–	–	–	–	–	Cisapride
–	–	–	–	–	clearly doubles the Tdecay	1969	+106%	+1012 ms	irregular calcium flux	Sparfloxacin
